For this assay, the target named is T1, human Werner helicase (WRN-BV08, Uniprot Q14191, amino acids 517-1235 with L1074F point mutation) (Homo sapiens, UniProt Q14191, L1074F).
T1 construct: Uniprot Q14191, amino acids 517-1235 with L1074F point mutation; TEV-cleavable 8×His (C, cleaved yes); made in house; host or cells: Sf9 insect cells (baculovirus)
In words: WRN (BV08) ADP-Glo Assay. As to conditions: 0.15 nM WRN, 5 μM ATP, 0.1 nM DNA duplex, 15 min preincubation, 60 min at 25° C., pH 7.5, 1% DMSO; read-out: ADP-Glo_hWRN_IC50. Format: biochemical. The gist of the method: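 WRN 0.15 nM + cpd, 15 min 25 °C; add 5 μM ATP / 0.1 nM annealed DNA duplex; 60 min 25 °C; ADP-Glo stop, RLU. Buffer 20 mM Bicine pH 7.5, 1 mM MgCl2, 10 mM KCl, 1 mM TCEP. IC50, 4-parameter fit.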
For orientation: In ADP-Glo the light output rises with the ADP produced.

T1 sequence (Q14191 with tags, fused parts or gaps L1074F limits assumed): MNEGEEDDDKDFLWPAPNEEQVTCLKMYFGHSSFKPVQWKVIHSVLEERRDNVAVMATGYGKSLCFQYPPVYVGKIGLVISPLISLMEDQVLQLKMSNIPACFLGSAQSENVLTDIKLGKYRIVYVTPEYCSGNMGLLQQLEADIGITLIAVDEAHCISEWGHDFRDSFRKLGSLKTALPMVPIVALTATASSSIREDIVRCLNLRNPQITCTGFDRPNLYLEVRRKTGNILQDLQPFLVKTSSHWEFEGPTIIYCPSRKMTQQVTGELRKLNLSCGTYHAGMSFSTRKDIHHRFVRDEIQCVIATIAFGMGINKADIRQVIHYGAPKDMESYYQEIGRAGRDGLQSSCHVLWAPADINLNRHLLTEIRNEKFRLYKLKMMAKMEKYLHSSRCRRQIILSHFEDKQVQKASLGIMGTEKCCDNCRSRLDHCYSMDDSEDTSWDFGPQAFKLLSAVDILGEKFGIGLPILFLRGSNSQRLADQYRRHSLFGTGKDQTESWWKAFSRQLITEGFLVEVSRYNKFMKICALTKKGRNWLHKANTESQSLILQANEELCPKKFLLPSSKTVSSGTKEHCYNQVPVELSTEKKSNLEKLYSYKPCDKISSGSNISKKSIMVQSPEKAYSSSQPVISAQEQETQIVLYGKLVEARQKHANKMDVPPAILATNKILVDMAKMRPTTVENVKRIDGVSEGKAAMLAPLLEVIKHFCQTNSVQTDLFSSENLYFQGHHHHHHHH

On to `COc1cc(CN(C(=O)C(C)n2cc(-c3ccc(F)cc3)cn2)[C@@H]2C=CS(=O)(=O)C2)ccn1` (stereo partly drawn) [I-137, N-[(3R)-1,1-dioxo-2,3-dihydro-1lambda6-thiophen-3-yl]-2-[4-(4-fluorophenyl)-1H-pyrazol-1-yl]-N-[(2-methoxypyridin-4-yl)methyl]propanamide], for which the IC50 is 0.5 to 5 µM. The value for `CS(=O)(=O)Nc1ccc(CN(C(=O)Cc2ccc(-n3cccc3)cc2)C2C=CS(=O)(=O)C2)cc1` (stereo not drawn) [I-284, N-(1,1-dioxo-2,3-dihydro-1lambda6-thiophen-3-yl)-N-[(4-methanesulfonamidophenyl)methyl]-2-[4-(1H-pyrrol-1-yl)phenyl]acetamide] was 10 to 50 µM. With `CC(C)(O)c1csc(CN(C(=O)Cc2ccc(S(F)(F)(F)(F)F)cc2)C2C=CS(=O)(=O)C2)n1` (single isomer, unassigned) [I-709], the IC50 was below 0.5 µM. `O=C(Cc1ccc(-c2cccc(F)c2)cc1F)N(Cc1ccncc1)C1C=CS(=O)(=O)C1` (stereo not drawn) [I-120, 2-{3,3′-difluoro-[1,1′-biphenyl]-4-yl}-N-(1,1-dioxo-2,3-dihydro-1lambda6-thiophen-3-yl)-N-[(pyridin-4-yl)methyl]acetamide]: the IC50 was 0.5 to 5 µM.

Take `N#Cc1csc(CN(C(=O)Cc2ccc(-n3cccc3)cc2)C2C=CS(=O)(=O)C2)n1` (stereo not drawn) [I-190, N-[(4-cyano-1,3-thiazol-2-yl)methyl]-N-(1,1-dioxo-2,3-dihydro-1lambda6-thiophen-3-yl)-2-[4-(1H-pyrrol-1-yl)phenyl]acetamide]: the IC50 fell in the range of 0.5 to 5 µM. For `O=C(C(c1ccc(Cl)cc1)c1ccc(Cl)cc1)N(Cc1ccncc1)C1C=CS(=O)(=O)C1` (stereo not drawn) [I-526, 2,2-bis(4-chlorophenyl)-N-(1,1-dioxo-2,3-dihydro-1lambda6-thiophen-3-yl)-N-[(pyridin-4-yl)methyl]acetamide], the IC50 is above 50 µM. Regarding `Cc1c(CC(=O)N(Cc2ccncc2)C2C=CS(=O)(=O)C2)nnn1-c1ccccc1` (stereo not drawn) [I-434, N-(1,1-dioxo-2,3-dihydro-1lambda6-thiophen-3-yl)-2-(5-methyl-1-phenyl-1H-1,2,3-triazol-4-yl)-N-[(pyridin-4-yl)methyl]acetamide], the IC50 was above 50 µM.

Turning to `CN(C)C(=O)C(C(=O)N(Cc1ccnc(C(C)(C)O)c1)C1C=CS(=O)(=O)C1)c1ccc(-c2ccc(F)cc2)cc1F` (single isomer, unassigned) [I-258, (2R**)-2-{3,4′-difluoro-[1,1′-biphenyl]-4-yl}-N-[(3R*)-1,1-dioxo-2,3-dihydro-1lambda6-thiophen-3-yl]-N-{[2-(2-hydroxypropan-2-yl)pyridin-4-yl]methyl}-N′,N′-dimethylpropanediamide], the IC50 lay within 5 to 10 µM.

Regarding `O=C(Cc1ccc2cc(Br)ccc2c1)N(Cc1ccncc1)C1C=CS(=O)(=O)C1` (stereo not drawn) [I-220, 2-(6-bromonaphthalen-2-yl)-N-(1,1-dioxo-2,3-dihydro-1lambda6-thiophen-3-yl)-N-[(pyridin-4-yl)methyl]acetamide], the IC50 fell in the range of 5 to 10 µM. The same measure for `C[Si](C)(C)c1ccc(CC(=O)N(Cc2ccncc2)C2C=CS(=O)(=O)C2)cc1` (stereo not drawn) [I-587, N-(1,1-dioxo-2,3-dihydro-1lambda6-thiophen-3-yl)-N-[(pyridin-4-yl)methyl]-2-[4-(trimethylsilyl)phenyl]acetamide]: 10 to 50 µM.

For `Cc1cccn1-c1ccc(CC(=O)N(Cc2ccc(C(=O)N(C)Cc3cn(Cc4ccc(NC(=O)CCOCCOCCOCCOCCNC(=O)CCCC[C@@H]5SC[C@@H]6NC(=O)N[C@@H]65)cn4)nn3)cc2)C2C=CS(=O)(=O)C2)c(F)c1` (single isomer, unassigned) [II-1], the IC50 was 0.5 to 5 µM. The same measure for `O=C(Cc1ccc(-n2cccc2)cc1)N(Cc1cc(F)cc(F)c1)C1C=CS(=O)(=O)C1` (stereo not drawn) [I-522, N-[(3,5-difluorophenyl)methyl]-N-(1,1-dioxo-2,3-dihydro-1lambda6-thiophen-3-yl)-2-[4-(1H-pyrrol-1-yl)phenyl]acetamide]: above 50 µM. With `COc1cc(CN(C(=O)C(c2ccc(-c3ccc(F)c(F)c3)cc2F)n2cc(C(F)F)cn2)[C@@H]2C=CS(=O)(=O)C2)ccn1` (stereo partly drawn) [I-705, 2-[4-(difluoromethyl)-1H-pyrazol-1-yl]-N-[(3R)-1,1-dioxo-2,3-dihydro-1lambda6-thiophen-3-yl]-N-[(2-methoxypyridin-4-yl)methyl]-2-{3,3′,4′-trifluoro-[1,1′-biphenyl]-4-yl}acetamide], the IC50 was in the range of 0.5 to 5 µM. For `COc1ccc2sc(CN(C(=O)Cc3ccc(-n4cccc4)cc3)C3C=CS(=O)(=O)C3)nc2c1` (stereo not drawn) [I-102, N-(1,1-dioxo-2,3-dihydro-1lambda6-thiophen-3-yl)-N-[(5-methoxy-1,3-benzothiazol-2-yl)methyl]-2-[4-(1H-pyrrol-1-yl)phenyl]acetamide], the IC50 was 0.5 to 5 µM.

For the compound `O=C(Cc1ccc(-n2cccc2)cc1)N(Cc1ccccc1)C1C=C(Br)S(=O)(=O)C1` (stereo not drawn) [I-269, 2-(4-(1H-pyrrol-1-yl)phenyl)-N-benzyl-N-(5-bromo-1,1-dioxido-2,3-dihydrothiophen-3-yl)acetamide], the IC50 lay in the range of 10 to 50 µM. On to `COc1cc(CN(C(=O)Cn2nc3ccc(C(F)(F)F)cc3c2C)[C@@H]2C=CS(=O)(=O)C2)ccn1` [I-766, N-[(3R)-1,1-dioxo-2,3-dihydro-1lambda6-thiophen-3-yl]-N-[(2-methoxypyridin-4-yl)methyl]-2-[3-methyl-5-(trifluoromethyl)-2H-indazol-2-yl]acetamide], for which the IC50 lay in the range of 5 to 10 µM. For the compound `O=C(Cc1ccc(-c2ccsc2)cc1)N(Cc1ccncc1)C1C=CS(=O)(=O)C1` (stereo not drawn) [I-248, N-(1,1-dioxo-2,3-dihydro-1lambda6-thiophen-3-yl)-N-[(pyridin-4-yl)methyl]-2-[4-(thiophen-3-yl)phenyl]acetamide], the IC50 is 5 to 10 µM. Regarding `O=C(CN1CCN(c2ccccc2)CC1)N(Cc1ccncc1)C1C=CS(=O)(=O)C1` (stereo not drawn) [I-557, N-(1,1-dioxo-2,3-dihydro-1lambda6-thiophen-3-yl)-2-(4-phenylpiperazin-1-yl)-N-[(pyridin-4-yl)methyl]acetamide], the IC50 was above 50 µM. As to `O=C(Cc1ccc(-n2cccc2)cc1)N(Cc1ccncc1)C1C=CS(=O)(=O)C1` (stereo not drawn) [I-239, N-(1,1-dioxo-2,3-dihydro-1lambda6-thiophen-3-yl)-N-[(pyridin-4-yl)methyl]-2-[4-(1H-pyrrol-1-yl)phenyl]acetamide], the IC50 lay within 5 to 10 µM.

In the case of `COc1cc(CN(C(=O)C(OC)c2ccc(-c3ccc(F)cc3)cc2F)C2C=CS(=O)(=O)C2)ccn1` (single isomer, unassigned) [I-33, (2R*)-2-{3,4′-difluoro-[1,1′-biphenyl]-4-yl}-N-[(3R**)-1,1-dioxo-2,3-dihydro-1lambda6-thiophen-3-yl]-2-methoxy-N-[(2-methoxypyridin-4-yl)methyl]acetamide], the IC50 is below 0.5 µM. For the compound `Cc1cccn1-c1ccc(CC(=O)N(Cc2ccc(C(=O)N3CCN(C(=O)CCCc4cn(Cc5ccc(NC(=O)CCOCCOCCOCCOCCNC(=O)CCCC[C@@H]6SC[C@@H]7NC(=O)N[C@@H]76)cn5)nn4)CC3)cc2)C2C=CS(=O)(=O)C2)c(F)c1` (stereo partly drawn) [II-2, 1-{5-[(3aS,4S,6aR)-2-oxo-hexahydro-1H-thieno[3,4-d]imidazol-4-yl]pentanamido}-N-{6-[(4-{4-[4-(4-{[N-(1,1-dioxo-2,3-dihydro-1lambda6-thiophen-3-yl)-2-[2-fluoro-4-(2-methyl-1H-pyrrol-1-yl)phenyl]acetamido]methyl}benzoyl)piperazin-1-yl]-4-oxobutyl}-1H-1,2,3-triazol-1-yl)methyl]pyridin-3-yl}-3,6,9,12-tetraoxapentadecan-15-amide], the IC50 lay in the range of 0.5 to 5 µM. On to `O=C(Cc1ccc(CC(F)(F)F)cc1)N(Cc1ccncc1)C1C=CS(=O)(=O)C1` (stereo not drawn) [I-263, N-(1,1-dioxo-2,3-dihydro-1lambda6-thiophen-3-yl)-N-[(pyridin-4-yl)methyl]-2-[4-(2,2,2-trifluoroethyl)phenyl]acetamide], for which the IC50 was in the range of 5 to 10 µM. `COc1ccc2c(c1)CCCC2C(=O)N(Cc1ccncc1)C1C=CS(=O)(=O)C1` (stereo not drawn) [I-717, N-(1,1-dioxo-2,3-dihydro-1lambda6-thiophen-3-yl)-6-methoxy-N-[(pyridin-4-yl)methyl]-1,2,3,4-tetrahydronaphthalene-1-carboxamide]: the IC50 is above 50 µM. Turning to `COC(C(=O)N(Cc1nc(C2CC2)cs1)C1C=CS(=O)(=O)C1)c1ccc(-c2ccc(F)c(F)c2)cc1F` (stereo not drawn) [I-47, N-[(4-cyclopropyl-1,3-thiazol-2-yl)methyl]-N-(1,1-dioxo-2,3-dihydro-1lambda6-thiophen-3-yl)-2-methoxy-2-{3,3′,4′-trifluoro-[1,1′-biphenyl]-4-yl}acetamide], the IC50 is below 0.5 µM.

In the case of `CC(C)(O)c1cc(CN(C(=O)C(OCCC(F)(F)F)c2ccc(-c3ccc(F)c(F)c3)cc2F)[C@@H]2C=CS(=O)(=O)C2)ccn1` (single isomer, unassigned) [I-790], the IC50 lay within 0.5 to 5 µM. Regarding `O=C(CC1CC(c2ccccc2)C1)N(Cc1ccncc1)C1C=CS(=O)(=O)C1` (stereo not drawn) [I-584, N-(1,1-dioxo-2,3-dihydro-1lambda6-thiophen-3-yl)-2-(3-phenylcyclobutyl)-N-[(pyridin-4-yl)methyl]acetamide], the IC50 was above 50 µM.

On to `CC(C)(O)c1cc(CN(C(=O)Cc2ncc(-c3ccc(F)c(F)c3)cc2F)C2C=CS(=O)(=O)C2)ccn1` (single isomer, unassigned) [I-50, 2-(5-(3,4-difluorophenyl)-3-fluoropyridin-2-yl)-N-(1,1-dioxido-2,3-dihydrothiophen-3-yl)-N-((2-(2-hydroxypropan-2-yl)pyridin-4-yl)methyl)acetamide], for which the IC50 was below 0.5 µM.

Source of the values: US20260297070A1, “CYCLIC [COMPOUND LEFT OUT] WRN INHIBITORS” (Nimbus Wadjet, Inc., priority 2023, published 2026).
